Reference: patent publication US12590070B2, “Adamantane derivatives as inhibitors of focal adhesion kinase” (SAMJIN PHARMACEUTICAL CO., LTD., priority 2019, dated 2026)

Columns and labels:
InsR = molecular target: T1, InsR (Homo sapiens, UniProt P06213); assay: ADP-Glo Kinase Assay, InsR; type: biochemical; details: ADP-Glo Kinase Assay Kit
T1 construct: purchased Promega V9401
Procedure: (§1) Briefly, a kinase test was performed and quantified according to the manufacturer's instructions after treating the adamantane derivative compound of the present invention by using the ADP-Glo™ Kinase Assay Kit (FAK, Promega, V1971; Pyk2, Promega, V4083; InsR, Promega, V9401) containing each kinase of Promega.

Pyk2 = molecular target: T2, Pyk2 (Homo sapiens, UniProt Q14289); assay: ADP-Glo Kinase Assay, Pyk2; type: biochemical; details: ADP-Glo Kinase Assay Kit
T2 construct: purchased Promega V4083
Procedure: as §1

FAK [1] = molecular target: T3, FAK (Homo sapiens, UniProt Q05397); assay: ADP-Glo Kinase Assay, FAK; type: biochemical; set-up: purchased Promega V1971; details: ADP-Glo Kinase Assay Kit
Procedure: as §1

FAK [2] = molecular target: T3, FAK; assay: FAK [pY397] ELISA in MDA-MB-231 cells; type: cell-based; set-up: endogenous in cells; host or cells: MDA-MB-231; details: MDA-MB-231, treated for one hour, Table 2; read-out: FAK inhibitory activity (IC50)
Procedure: Briefly, an enzyme-linked immunosorbent assay test was performed according to the manufacturer's instructions by using the FAK (Phospho) [pY397] Human ELISA Kit (Thermo Fisher Scientific, KH00441) after dispensing 1×10^6 MDA-MB-231 cells into each well of a 6-well plate, inducing cell stabilization for 24 hours, and treating each compound at different concentrations (o, 1, 5, 10, 50, 100, 500, 1000 nM) for one hour.

T1 sequence (P06213 28-1382): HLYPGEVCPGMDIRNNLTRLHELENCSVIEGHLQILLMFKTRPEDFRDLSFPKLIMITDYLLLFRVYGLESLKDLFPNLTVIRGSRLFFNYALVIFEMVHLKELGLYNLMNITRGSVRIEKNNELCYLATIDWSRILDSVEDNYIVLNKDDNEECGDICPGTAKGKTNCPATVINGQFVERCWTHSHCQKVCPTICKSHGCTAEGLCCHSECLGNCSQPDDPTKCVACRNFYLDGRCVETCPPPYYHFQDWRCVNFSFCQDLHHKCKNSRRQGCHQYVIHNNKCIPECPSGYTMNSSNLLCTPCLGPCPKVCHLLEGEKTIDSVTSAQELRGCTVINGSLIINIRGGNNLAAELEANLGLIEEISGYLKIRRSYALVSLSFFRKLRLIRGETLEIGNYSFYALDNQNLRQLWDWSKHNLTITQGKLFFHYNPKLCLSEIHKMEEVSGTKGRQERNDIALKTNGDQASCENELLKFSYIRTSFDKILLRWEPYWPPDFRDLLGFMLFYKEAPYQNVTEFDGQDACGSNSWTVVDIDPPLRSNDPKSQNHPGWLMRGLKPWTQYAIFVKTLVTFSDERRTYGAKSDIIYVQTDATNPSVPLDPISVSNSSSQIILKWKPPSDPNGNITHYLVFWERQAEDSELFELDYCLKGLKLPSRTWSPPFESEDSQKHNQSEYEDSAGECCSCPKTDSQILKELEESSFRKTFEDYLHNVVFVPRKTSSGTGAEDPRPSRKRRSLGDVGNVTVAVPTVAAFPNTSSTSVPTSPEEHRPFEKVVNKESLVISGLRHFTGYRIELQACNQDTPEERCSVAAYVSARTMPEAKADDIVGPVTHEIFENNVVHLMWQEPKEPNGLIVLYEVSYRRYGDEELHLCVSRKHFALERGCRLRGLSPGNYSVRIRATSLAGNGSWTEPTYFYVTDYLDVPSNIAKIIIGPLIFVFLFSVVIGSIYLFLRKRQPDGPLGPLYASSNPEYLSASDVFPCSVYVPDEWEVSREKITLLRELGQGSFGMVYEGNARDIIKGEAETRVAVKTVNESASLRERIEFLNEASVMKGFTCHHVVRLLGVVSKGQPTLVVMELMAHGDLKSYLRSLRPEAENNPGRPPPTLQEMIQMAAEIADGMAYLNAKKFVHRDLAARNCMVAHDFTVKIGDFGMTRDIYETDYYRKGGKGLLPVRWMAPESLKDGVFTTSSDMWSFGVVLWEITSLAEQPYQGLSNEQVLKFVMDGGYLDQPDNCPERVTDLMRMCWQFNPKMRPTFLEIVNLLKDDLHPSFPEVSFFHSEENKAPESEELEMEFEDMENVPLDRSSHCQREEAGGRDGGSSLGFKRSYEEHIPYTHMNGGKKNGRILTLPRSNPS
T3 sequence (Q05397 whole entry): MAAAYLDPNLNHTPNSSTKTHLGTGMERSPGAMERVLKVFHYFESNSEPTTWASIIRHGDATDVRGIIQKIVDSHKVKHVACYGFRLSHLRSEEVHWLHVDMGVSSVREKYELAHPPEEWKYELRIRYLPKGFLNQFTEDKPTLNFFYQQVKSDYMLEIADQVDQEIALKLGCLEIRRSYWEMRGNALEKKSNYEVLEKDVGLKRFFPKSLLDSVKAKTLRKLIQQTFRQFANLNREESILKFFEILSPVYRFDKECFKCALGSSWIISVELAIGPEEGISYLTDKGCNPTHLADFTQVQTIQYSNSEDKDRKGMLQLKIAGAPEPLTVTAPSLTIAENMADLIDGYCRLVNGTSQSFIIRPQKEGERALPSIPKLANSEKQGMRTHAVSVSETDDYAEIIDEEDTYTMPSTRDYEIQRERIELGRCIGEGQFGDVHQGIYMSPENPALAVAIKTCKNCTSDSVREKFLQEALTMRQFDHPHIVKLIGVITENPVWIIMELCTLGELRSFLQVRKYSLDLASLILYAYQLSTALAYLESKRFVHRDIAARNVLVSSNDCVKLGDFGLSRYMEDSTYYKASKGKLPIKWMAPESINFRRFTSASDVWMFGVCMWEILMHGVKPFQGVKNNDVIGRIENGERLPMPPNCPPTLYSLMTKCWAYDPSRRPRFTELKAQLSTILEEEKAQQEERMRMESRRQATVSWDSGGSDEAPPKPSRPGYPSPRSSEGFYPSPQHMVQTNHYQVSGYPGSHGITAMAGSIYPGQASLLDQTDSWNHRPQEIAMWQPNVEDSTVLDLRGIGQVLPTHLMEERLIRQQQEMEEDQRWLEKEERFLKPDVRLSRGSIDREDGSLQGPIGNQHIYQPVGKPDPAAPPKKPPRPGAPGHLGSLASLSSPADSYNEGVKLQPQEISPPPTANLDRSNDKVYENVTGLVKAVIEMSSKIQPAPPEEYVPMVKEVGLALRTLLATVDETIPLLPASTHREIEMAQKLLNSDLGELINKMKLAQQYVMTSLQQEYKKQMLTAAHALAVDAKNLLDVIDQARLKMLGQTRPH
T2 sequence (Q14289 whole entry): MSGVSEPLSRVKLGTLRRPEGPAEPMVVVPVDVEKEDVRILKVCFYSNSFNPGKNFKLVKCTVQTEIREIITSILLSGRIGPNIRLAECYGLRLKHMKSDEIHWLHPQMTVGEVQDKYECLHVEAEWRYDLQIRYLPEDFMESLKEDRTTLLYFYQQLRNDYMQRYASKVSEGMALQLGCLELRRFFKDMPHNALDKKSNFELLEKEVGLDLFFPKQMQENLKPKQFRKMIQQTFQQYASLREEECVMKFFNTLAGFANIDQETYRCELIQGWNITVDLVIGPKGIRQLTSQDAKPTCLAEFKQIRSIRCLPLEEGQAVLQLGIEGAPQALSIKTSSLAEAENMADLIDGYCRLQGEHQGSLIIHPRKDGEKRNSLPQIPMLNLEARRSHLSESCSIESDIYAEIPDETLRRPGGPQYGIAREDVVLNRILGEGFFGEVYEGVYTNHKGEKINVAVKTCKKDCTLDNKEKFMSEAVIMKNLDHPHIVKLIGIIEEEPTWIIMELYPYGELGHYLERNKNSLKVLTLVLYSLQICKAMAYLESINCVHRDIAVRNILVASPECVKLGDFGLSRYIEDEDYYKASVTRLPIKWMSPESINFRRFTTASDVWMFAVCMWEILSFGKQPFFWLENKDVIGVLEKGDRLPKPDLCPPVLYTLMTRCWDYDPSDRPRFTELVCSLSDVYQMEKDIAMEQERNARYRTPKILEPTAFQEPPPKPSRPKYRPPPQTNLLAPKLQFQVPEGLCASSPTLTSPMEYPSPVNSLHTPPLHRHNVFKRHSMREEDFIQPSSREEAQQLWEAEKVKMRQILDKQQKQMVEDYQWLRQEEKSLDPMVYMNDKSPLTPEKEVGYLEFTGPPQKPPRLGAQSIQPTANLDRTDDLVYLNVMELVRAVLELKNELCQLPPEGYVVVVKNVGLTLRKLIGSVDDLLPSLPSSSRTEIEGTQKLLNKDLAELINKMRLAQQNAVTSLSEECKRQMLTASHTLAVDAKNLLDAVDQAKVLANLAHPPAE

SMILES	IC50 (InsR) [nM]	IC50 (Pyk2) [nM]	IC50 (FAK [1]) [nM]	IC50 (FAK [2]) [nM]
COc1cc(C2CCN([C@H]3C4CC5CC3C[C@](O)(C5)C4)CC2)ccc1Nc1ncc(C(F)(F)F)c(Nc2c(C)cccc2C(N)=O)n1 [Compound 35, 2-((2-((4-(1-((cis)-5-hydroxyadamantan-2-yl)piperidin-4-yl)-2-methoxyphenyl)amino)-5-(trifluoromethyl)pyrimidin-4-yl)amino)-3-methylbenzamide]	1440	418		
CNC(=O)c1cccc(C)c1Nc1nc(Nc2ccc(C3CCN([C@H]4C5CC6CC4C[C@@](O)(C6)C5)CC3)cc2OC)ncc1C(F)(F)F [Compound 33, 2-((2-((4-(1-((cis)-5-hydroxyadamantan-2-yl)piperidin-4-yl)-2-methoxyphenyl)amino)-5-(trifluoromethyl)pyrimidin-4-yl)amino)-N,3-dimethylbenzamide]	2050	101		
CNC(=O)c1cccc(C)c1Nc1nc(Nc2ccc(C3CCN([C@H]4C5CC6CC4C[C@](O)(C6)C5)CC3)cc2OC)ncc1C(F)(F)F [Compound 32, 2-((2-((4-(1-((trans)-5-hydroxyadamantan-2-yl)piperidin-4-yl)-2-methoxyphenyl)amino)-5-(trifluoromethyl)pyrimidin-4-yl)amino)-N,3-dimethylbenzamide]	2150	154		
CNC(=O)c1cccc(C)c1Nc1nc(Nc2ccc(NC(=O)[C@]34CC5CC(C3)[C@@H](N3CC[C@H](N)C3)C(C5)C4)cc2OC)ncc1C(F)(F)F [Compound 30, (trans)-4-((S)-3-aminopyrrolidin-1-yl)-N-(3-methoxy-4-((4-((2-methyl-6-(methylcarbamoyl)phenyl)amino)-5-(trifluoromethyl)pyrimidin-2-yl)amino)phenyl) adamantan-1-carboxamide]	3800	18.2		
CNC(=O)c1cccc(C)c1Nc1nc(Nc2ccc(N3CCN([C@H]4C5CC6CC4C[C@](C(=O)OC)(C6)C5)CC3)cc2OC)ncc1C(F)(F)F [Compound 37, methyl (trans)-4-(4-(3-methoxy-4-((4-((2-methyl-6-(methylcarbamoyl)phenyl)amino)-5-(trifluoromethyl)pyrimidin-2-yl)amino)phenyl)piperazin-1-yl) adamantan-1-carboxylate]			43.6	
COc1cc(C2CCN([C@H]3C4CC5CC3C[C@](O)(C5)C4)CC2)ccc1Nc1ncc(C(F)(F)F)c(Nc2c(C)cccc2C(N)=O)n1 [Compound 34, 2-((2-((4-(1-((trans)-5-hydroxyadamantan-2-yl)piperidin-4-yl)-2-methoxyphenyl)amino)-5-(trifluoromethyl)pyrimidin-4-yl)amino)-3-methylbenzamide]	1640	427		
CNC(=O)c1cccc(C)c1Nc1nc(Nc2ccc(OC3C4CC5CC3CC(C(=O)N3CCOCC3)(C5)C4)cc2OC)ncc1C(F)(F)F (stereo not shown) [Compound 19, 2-((2-((2-methoxy-4-((5-(morpholin-4-carbonyl)adamantan-2-yl)oxy)phenyl)amino)-5-(trifluoromethyl)pyrimidin-4-yl)amino)-N,3-dimethylbenzamide]			127	
CNC(=O)c1cccc(C)c1Nc1nc(Nc2ccc(NC3CCN([C@H]4C5CC6CC4C[C@@](O)(C6)C5)CC3)cc2OC)ncc1C(F)(F)F [Compound 8, 2-((2-((4-((1-((cis)-5-hydroxyadamantan-2-yl)piperidin-4-yl)amino)-2-methoxyphenyl)amino)-5-(trifluoromethyl)pyrimidin-4-yl)amino)-N,3-dimethylbenzamide]	> 10000		53.3	121
CNC(=O)c1cccc(C)c1Nc1nc(Nc2ccc(NC(=O)[C@]34CC5CC(C3)[C@H](N3CC[C@H](NC(C)=O)C3)C(C5)C4)cc2OC)ncc1C(F)(F)F [Compound 28, (cis)-4-((S)-3-acetamidopyrrolidin-1-yl)-N-(3-methoxy-4-((4-((2-methyl-6-(methylcarbamoyl)phenyl)amino)-5-(trifluoromethyl)pyrimidin-2-yl)amino)phenyl) adamantan-1-carboxamide]	> 10000	64.5	29	
CNC(=O)c1cccc(C)c1Nc1nc(Nc2ccc(NC3C4CC5CC(C4)CC3C5)cc2OC)ncc1C(F)(F)F (stereo not shown) [Compound 2, 2-((2-((4-(adamantan-2-ylamino)-2-methoxyphenyl)amino)-5-(trifluoromethyl)pyrimidin-4-yl)amino)-N,3-dimethylbenzamide]	> 10000		206	111
CNC(=O)c1cccc(C)c1Nc1nc(Nc2ccc(N3CCN([C@H]4C5CC6CC4C[C@](C(=O)O)(C6)C5)CC3)cc2OC)ncc1C(F)(F)F [Compound 40, (cis)-4-(4-(3-methoxy-4-((4-((2-methyl-6-(methylcarbamoyl)phenyl)amino)-5-(trifluoromethyl)pyrimidin-2-yl)amino)phenyl)piperazin-1-yl) adamantan-1-carboxylic acid]			58.3	
CNC(=O)c1cccc(C)c1Nc1nc(Nc2ccc(O[C@]34CC5CC(C3)[C@@H](N3CC[C@H](NC(C)=O)C3)C(C5)C4)cc2OC)ncc1C(F)(F)F [Compound 14, 2-((2-((4-(((trans)-4-((S)-3-acetamidopyrrolidin-1-yl)adamantan-1-yl)oxy)-2-methoxyphenyl)amino)-5-(trifluoromethyl)pyrimidin-4-yl)amino)-N,3-dimethylbenzamide]			57	
CNC(=O)c1cccc(C)c1Nc1nc(Nc2ccc(NC3C4CC5CC3CC(C(=O)N3CCOCC3)(C5)C4)cc2OC)ncc1C(F)(F)F (stereo not shown) [Compound 22, 2-((2-((2-methoxy-4-((5-(morpholin-4-carbonyl)adamantan-2-yl)amino)phenyl)amino)-5-(trifluoromethyl)pyrimidin-4-yl)amino)-N,3-dimethylbenzamide]			57	
CNC(=O)c1cccc(C)c1Nc1nc(Nc2ccc(N3CCN([C@H]4C5CC6CC4C[C@@](O)(C6)C5)CC3)cc2OC)ncc1C(F)(F)F [Compound 5, 2-((2-((4-(4-((cis)-5-hydroxyadamantan-2-yl)piperazin-1-yl)-2-methoxyphenyl)amino)-5-(trifluoromethyl)pyrimidin-4-yl)amino)-N,3-dimethylbenzamide]	4680		69.9	32
CNC(=O)c1cccc(C)c1Nc1nc(Nc2ccc(NC3C4CC5CC3CC(C(=O)N3CCN(C)CC3)(C5)C4)cc2OC)ncc1C(F)(F)F (stereo not shown) [Compound 23, 2-((2-((2-methoxy-4-((5-(4-methylpiperazin-1-carbonyl)adamantan-2-yl)amino)phenyl)amino)-5-(trifluoromethyl)pyrimidin-4-yl)amino)-N,3-dimethylbenzamide]			77.5	234
CNC(=O)c1cccc(C)c1Nc1nc(Nc2ccc(N3CCN([C@H]4C5CC6CC4C[C@@](C(=O)OC)(C6)C5)CC3)cc2OC)ncc1C(F)(F)F [Compound 38, methyl (cis)-4-(4-(3-methoxy-4-((4-((2-methyl-6-(methylcarbamoyl)phenyl)amino)-5-(trifluoromethyl)pyrimidin-2-yl)amino)phenyl)piperazin-1-yl) adamantan-1-carboxylate]			70	
CNC(=O)c1cccc(C)c1Nc1nc(Nc2ccc(N3CCN([C@H]4C5CC6CC4C[C@](C(=O)O)(C6)C5)CC3)cc2OC)ncc1C(F)(F)F [Compound 39, (trans)-4-(4-(3-methoxy-4-((4-((2-methyl-6-(methylcarbamoyl)phenyl)amino)-5-(trifluoromethyl)pyrimidin-2-yl)amino)phenyl)piperazin-1-yl) adamantan-1-carboxylic acid]			58	
CNC(=O)c1cccc(C)c1Nc1nc(Nc2ccc(OC3C4CC5CC3CC(C(=O)NC)(C5)C4)cc2OC)ncc1C(F)(F)F (stereo not shown) [Compound 18, 4-(3-methoxy-4-((4-((2-methyl-6-(methylcarbamoyl)phenyl)amino)-5-(trifluoromethyl)pyrimidin-2-yl)amino)phenoxy)-N-methyladamantan-1-carboxamide]			92.9	
CNC(=O)c1cccc(C)c1Nc1nc(Nc2ccc(OC3CCN(C4C5CC6CC(C5)CC4C6)CC3)cc2OC)ncc1C(F)(F)F (stereo not shown) [Compound 9, 2-((2-((4-((1-(adamantan-2-yl)piperidin-4-yl)oxy)-2-methoxyphenyl)amino)-5-(trifluoromethyl)pyrimidin-4-yl)amino)-N,3-dimethylbenzamide]	> 10000		98.1	
CNC(=O)c1cccc(C)c1Nc1nc(Nc2ccc(N3CCN([C@H]4C5CC6CC4C[C@@](O)(C6)C5)CC3)cc2OC)ncc1Cl [Compound 36, 2-((5-chloro-2-((4-(4-((trans)-5-hydroxyadamantan-2-yl)piperazin-1-yl)-2-methoxyphenyl)amino)-pyrimidin-4-yl)amino)-N,3-dimethylbenzamide]			61.4	
CNC(=O)c1cccc(C)c1Nc1nc(Nc2ccc(OC3C4CC5CC3CC(C(=O)N3CCN(C)CC3)(C5)C4)cc2OC)ncc1C(F)(F)F (stereo not shown) [Compound 20, 2-((2-((2-methoxy-4-((5-(4-methylpiperazin-1-carbonyl)adamantan-2-yl)oxy)phenyl)amino)-5-(trifluoromethyl)pyrimidin-4-yl)amino)-N,3-dimethylbenzamide]			98.9	153
